# Laboratory results reported in ChEMBL document CHEMBL1151820, “Antagonists of the P2X(7) receptor. From lead identification to drug development” (J Med Chem, 2009).
# Columns and labels:
# P2X purinoceptor 7 = target: T1, P2X purinoceptor 7 (Homo sapiens, UniProt Q99572); assay: Antagonist activity at P2X7 receptor in human THP1 cells assessed as inhibition of BzATP-induced ethidium uptake; format: functional, cell-based, THP-1; conditions: for pIC50: thp-1; for Kb: read-out: pA2 (converted)
# T1 sequence (Q99572 whole entry): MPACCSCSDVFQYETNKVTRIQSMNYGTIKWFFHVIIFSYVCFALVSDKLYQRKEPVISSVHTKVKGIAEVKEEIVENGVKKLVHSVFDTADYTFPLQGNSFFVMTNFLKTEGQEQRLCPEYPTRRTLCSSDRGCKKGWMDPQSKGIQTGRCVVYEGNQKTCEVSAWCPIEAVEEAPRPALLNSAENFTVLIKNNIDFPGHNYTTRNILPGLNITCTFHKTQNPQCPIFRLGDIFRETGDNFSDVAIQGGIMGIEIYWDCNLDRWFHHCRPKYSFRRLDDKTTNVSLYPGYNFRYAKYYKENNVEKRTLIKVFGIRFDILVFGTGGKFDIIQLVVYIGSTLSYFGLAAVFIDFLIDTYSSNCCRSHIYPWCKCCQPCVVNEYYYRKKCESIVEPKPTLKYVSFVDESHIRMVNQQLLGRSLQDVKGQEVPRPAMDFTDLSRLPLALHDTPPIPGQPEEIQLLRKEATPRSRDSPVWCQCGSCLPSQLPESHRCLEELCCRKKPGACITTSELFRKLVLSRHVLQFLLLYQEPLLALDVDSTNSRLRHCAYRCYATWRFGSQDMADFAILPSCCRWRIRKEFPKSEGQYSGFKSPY
# [1] = target: T2, P2X purinoceptor 7 (Homo sapiens) (UniProt Q99572); conditions: HEK293, at 3 µM
# T2 sequence (whole entry): T1 sequence (Q99572 whole entry)
IC50 (P2X purinoceptor 7),inhibition [1],SMILES,further results
2.51 nM,,O=C(Cc1ccc(F)c(C(F)(F)F)c1)Nc1cccc2c(=O)n([C@@H]3CNC[C@H]3O)ccc12,
> 10000 nM,,CC(=O)NC(CCc1ccncc1)COc1ccc(-c2cccc([N+](=O)[O-])c2)cc1 (configuration not stated),
,37%,CC(C)(C)OC(=O)N1CCN(C(=O)[C@H](Cc2ccc(OS(=O)(=O)c3cccc4cccnc34)cc2)NS(=O)(=O)c2cccc3cnccc23)CC1,
0.0794 nM,,C[C@@H](C(N)=O)n1ccc2c(NC(=O)CC34CC5CC(CC(C5)C3)C4)c(Cl)ccc2c1=O,
,< 10%,CC(C)(C)OC(=O)N1CCN(C(=O)[C@H](Cc2ccc(OS(=O)(=O)c3cccc4cccnc34)cc2)NS(C)(=O)=O)CC1,
,43%,CC(C)(C)OC(=O)N1CCN(C(=O)[C@H](Cc2ccc(OS(=O)(=O)c3cccc4cnccc34)cc2)NC(=O)OCc2ccccc2)CC1,
25.1 nM,,CCS(=O)(=O)N1CCc2c(ccc(C)c2NC(=O)Cc2ccc(C(F)(F)F)c(F)c2)C1,
,< 10%,CC(C)(C)OC(=O)N1CCN(C(=O)[C@H](Cc2ccc(O)cc2)NC(=O)OCc2ccccc2)CC1,
,53%,CC(C)(C)OC(=O)N1CCN(C(=O)[C@H](Cc2ccc(OS(=O)(=O)c3cccc4cccnc34)cc2)NC(=O)OCc2ccccc2)CC1,
0.0501 nM,,CC(C)C(CO)n1ccc2c(NC(=O)CC34CC5CC(CC(C5)C3)C4)cccc2c1=O (configuration not stated),
3.16 nM,,O=C(CC1CCCCCC1)Nc1cccc2c(=O)n([C@H]3CCNC3)ccc12,
316 nM,,Cc1ccc2c(NC(=O)C[C@H](C)c3ccccc3)c(Cl)ccc2n1,
,< 10%,CC(C)(C)OC(=O)N1CCN(C(=O)[C@@H](N)Cc2ccc(OS(=O)(=O)c3cccc4cccnc34)cc2)CC1,
0.316 nM,,O=C(Cc1cccc(C(F)(F)F)c1F)Nc1c(Cl)ccc2c(=O)n(C3CC3)ccc12,
,32%,Cc1ccc(S(=O)(=O)N[C@@H](Cc2ccc(OS(=O)(=O)c3cccc4cccnc34)cc2)C(=O)N2CCN(C(=O)OC(C)(C)C)CC2)cc1,
,< 10%,CC(C)(C)OC(=O)N1CCN(C(=O)[C@H](Cc2ccc(OS(C)(=O)=O)cc2)NC(=O)OCc2ccccc2)CC1,
,< 10%,CC(C)(C)OC(=O)N1CCN(C(=O)[C@H](Cc2ccc(OS(=O)(=O)c3cccc4cccnc34)cc2)NS(=O)(=O)c2ccccc2)CC1,
79.4 nM,,O=C(Cc1ccc(C(F)(F)F)c(F)c1)Nc1cccc2c1CCN(C(=O)[C@H]1CCCN1)C2,
7.94 nM,,O=C(CC12CC3CC(CC(C3)C1)C2)Nc1cccc2nc(NCCCO)ccc12,
,< 10%,CCC(=O)Oc1ccc(C[C@H](NC(=O)OCc2ccccc2)C(=O)N2CCN(C(=O)OC(C)(C)C)CC2)cc1,
398 nM,,O=C(NCC1(O)CCCCC1)c1cc(-n2ncc(=O)[nH]c2=O)ccc1Cl,

# Second part, the molecule before the results:
SMILES,IC50 (P2X purinoceptor 7),inhibition [1],further results
O=C(NCC12CC3CC(CC(C3)C1)C2)c1cc(-n2ncc(=O)[nH]c2=O)ccc1Cl,50.1 nM,,
O=C(NC12CC3CC(CC(C3)C1)C2)c1ccccc1Cl,> 10000 nM,,
CCCCC(CC)CNC(=O)c1cc(-n2ncc(=O)[nH]c2=O)ccc1Cl (configuration not stated),794 nM,,
O=C(CC1CCCCC1)Nc1c(Cl)ccc2nc(NCCCO)ccc12,25.1 nM,,
CC(C)(C)OC(=O)N1CCN(C(=O)[C@H](Cc2ccc(OC(=O)c3ccccc3)cc2)NC(=O)OCc2ccccc2)CC1,,47%,
O=C(CC12CC3CC(CC(C3)C1)C2)Nc1c(Cl)ccc2nc(CN3CCN(CCO)CC3)ccc12,20 nM,,
CN(CCO)CCc1cc(C(=O)NCC23CC4CC(CC(C4)C2)C3)c(Cl)cn1,15.8 nM,,
NC1CCN(c2nccc(C(=O)NCC34CC5CC(CC(C5)C3)C4)c2Cl)CC1,,,pIC50 (P2X purinoceptor 7): > 5
O=C(NCC12CC3CC(CC(C3)C1)C2)c1ccc(Cl)cc1,> 10000 nM,,
COC(=O)NC(CCc1ccncc1)COc1ccc(-c2cccc([N+](=O)[O-])c2)cc1 (configuration not stated),> 10000 nM,,
Cc1ccc2nc(CCNCCCO)ccc2c1NC(=O)CC12CC3CC(CC(C3)C1)C2,15.8 nM,,
O=C(CNc1ccc(F)c(F)c1)Nc1cc(OC2CCNCC2)ccc1Cl,,,pIC50 (P2X purinoceptor 7): > 4.5
O=C(NCC12CC3CC(CC(C3)C1)C2)c1cc(OCCCNCCCO)ccc1Cl,,,pIC50 (P2X purinoceptor 7): > 5
Cc1cccc(C)c1NC(=O)CN1CC2CCC(C1)N2c1ncnc2sccc12,,,pIC50 (P2X purinoceptor 7): >= 5
CCC(=O)N1CCN(C(=O)[C@H](Cc2ccc(OS(=O)(=O)c3ccccc3)cc2)NC(=O)OCc2ccccc2)CC1,,< 10%,
CN(C(=O)c1ccc(N2CCC(N3C(=O)OCc4ccccc43)CC2)c([N+](=O)[O-])c1)C1CCCCC1,,,pIC50 (P2X purinoceptor 7): >= 4.5
COc1ccc(S(=O)(=O)Oc2ccc(C[C@H](NC(=O)OCc3ccccc3)C(=O)N3CCN(C(=O)OC(C)(C)C)CC3)cc2)cc1,,62%,
COC(=O)N(C)C(CCc1ccncc1)COc1ccc(-c2cccc([N+](=O)[O-])c2)cc1 (configuration not stated),> 10000 nM,,
CCOC(=O)Oc1ccc(C[C@H](NC(=O)OCc2ccccc2)C(=O)N2CCN(C(=O)OC(C)(C)C)CC2)cc1,,< 10%,
CC(C)(C)OC(=O)N1CCN(C(=O)[C@H](Cc2ccc(OS(=O)(=O)c3cccc4cccnc34)cc2)NS(=O)(=O)c2cccc3cccnc23)CC1,,61%,
O=C(N[C@@H](Cc1ccc(OS(=O)(=O)c2ccccc2)cc1)C(=O)N1CCN(S(=O)(=O)c2ccccc2)CC1)OCc1ccccc1,,< 10%,

SMILES,IC50 (P2X purinoceptor 7),inhibition [1],further results
C[C@@H]1CN(CC(=O)Nc2cccc3ncccc23)CCN1S(=O)(=O)c1ccc(S(C)(=O)=O)cc1,,,pIC50 (P2X purinoceptor 7): >= 5
O=C(O)CNCCNc1ccc(Cl)c(C(=O)NCC23CC4CC(CC(C4)C2)C3)c1,,,pIC50 (P2X purinoceptor 7): > 5
COc1ccc(Cl)c(C(=O)NCC23CC4CC(CC(C4)C2)C3)c1,,,Kb (P2X purinoceptor 7): 1.58 nM
O=C(NCC12CC3CC(CC(C3)C1)C2)c1cc(CCCNCCc2cnc[nH]2)ccc1Cl,,,pIC50 (P2X purinoceptor 7): > 5
CNC[C@@H](O)Cc1ccc(Cl)c(C(=O)NCC23CC4CC(CC(C4)C2)C3)c1,10 nM,,
CC(C)(C)OC(=O)N1CCN(C(=O)[C@H](Cc2ccc(OC(=O)OCc3ccccc3)cc2)NC(=O)OCc2ccccc2)CC1,,< 10%,
CS(=O)(=O)NC(=O)NCCCc1ccc2c(C(=O)NCC3CCCCC3)c(Cl)ccc2n1,501 nM,,
Cc1ccccc1NC(=O)CC12CC3CC(CC(C3)C1)C2,,,Kb (P2X purinoceptor 7): 158 nM
O=C(NCC12CC3CC(CC(C3)C1)C2)c1ccnc(N2CCNCC2)c1Cl,,,pIC50 (P2X purinoceptor 7): > 5
O=C(N[C@@H](Cc1ccc(OS(=O)(=O)c2ccccc2)cc1)C(=O)N1CCN(C(=O)OCc2ccccc2)CC1)OCc1ccccc1,,48%,
CC(CO)NC(=O)c1cnc(N2CCC(N3C(=O)OCc4ccccc43)CC2)nc1C(F)(F)F (configuration not stated),,,pIC50 (P2X purinoceptor 7): >= 4.5
CC(C)(C)OC(=O)N1CCN(C(=O)[C@H](Cc2ccc(OS(=O)(=O)c3cccc4cccnc34)cc2)NC(=O)c2ccccc2)CC1,,13%,
Cc1ccc(S(=O)(=O)Oc2ccc(C[C@H](NC(=O)OCc3ccccc3)C(=O)N3CCN(C(=O)OC(C)(C)C)CC3)cc2)cc1,,71%,
O=C(NCC12CC3CC(CC(C3)C1)C2)c1cc(N2CCNCC2)ncc1Cl,,,pIC50 (P2X purinoceptor 7): > 5
CC(C)(C)OC(=O)N1CCN(C(=O)[C@H](Cc2ccc(OS(=O)(=O)c3ccccc3)cc2)NC(=O)OCc2ccccc2)CC1,,59%,
CC(C)NC(=O)c1cnc(N2CCC(N3C(=O)OCc4ccccc43)CC2)c(Cl)c1,,,pIC50 (P2X purinoceptor 7): >= 4.5
O=C(NCC12CC3CC(CC(C3)C1)C2)c1cc(OC2CCNCC2)ncc1Cl,,,pIC50 (P2X purinoceptor 7): > 5
O=C(N[C@@H](Cc1ccc(OS(=O)(=O)c2ccccc2)cc1)C(=O)N1CCN(C(=O)c2ccccc2)CC1)OCc1ccccc1,,78%,
O=C(NCC12CC3CC(CC(C3)C1)C2)c1ccnc(NCC2CCNCC2)c1Cl,,,pIC50 (P2X purinoceptor 7): > 5
Clc1cccc(-c2nnnn2Cc2c(Cl)cccc2Cl)c1Cl,126 nM,,
